Experimental data published in patent US20240116988A1, “ANTI-ROR1 MACROCYCLIC PEPTIDES AND COMPOSITIONS” (BRISTOL-MYERS SQUIBB COMPANY, priority 2022, published 2024).
pIC50: −log10 of the molar value. Positions of bridges follow the written chain, without caps; N, C: chain ends. Non-standard residues stand in square brackets, D forms with d. Residues, ends and D or L forms follow the SMILES beside them. ξ: configuration not given here. NMeF = CN[C@@H](Cc1ccccc1)C(=O)O; NMeNle = CCCC[C@H](NC)C(=O)O; NMeA = CN[C@@H](C)C(=O)O; ξD = NC(CC(=O)O)C(=O)O; AEEA = NCCOCCOCC(=O)O

What follows are compounds tested against T1, human ROR1 (Homo sapiens, UniProt Q01973) (assay: ROR1 high content cell-based binding assay). Conditions: read-out: ROR1 Binding 293T Human HC Cell Based Assay IC50.
T1 construct: host or cells: HEK 293T cells, Tet-on system induced with doxycycline
T1 sequence (Q01973 30-937): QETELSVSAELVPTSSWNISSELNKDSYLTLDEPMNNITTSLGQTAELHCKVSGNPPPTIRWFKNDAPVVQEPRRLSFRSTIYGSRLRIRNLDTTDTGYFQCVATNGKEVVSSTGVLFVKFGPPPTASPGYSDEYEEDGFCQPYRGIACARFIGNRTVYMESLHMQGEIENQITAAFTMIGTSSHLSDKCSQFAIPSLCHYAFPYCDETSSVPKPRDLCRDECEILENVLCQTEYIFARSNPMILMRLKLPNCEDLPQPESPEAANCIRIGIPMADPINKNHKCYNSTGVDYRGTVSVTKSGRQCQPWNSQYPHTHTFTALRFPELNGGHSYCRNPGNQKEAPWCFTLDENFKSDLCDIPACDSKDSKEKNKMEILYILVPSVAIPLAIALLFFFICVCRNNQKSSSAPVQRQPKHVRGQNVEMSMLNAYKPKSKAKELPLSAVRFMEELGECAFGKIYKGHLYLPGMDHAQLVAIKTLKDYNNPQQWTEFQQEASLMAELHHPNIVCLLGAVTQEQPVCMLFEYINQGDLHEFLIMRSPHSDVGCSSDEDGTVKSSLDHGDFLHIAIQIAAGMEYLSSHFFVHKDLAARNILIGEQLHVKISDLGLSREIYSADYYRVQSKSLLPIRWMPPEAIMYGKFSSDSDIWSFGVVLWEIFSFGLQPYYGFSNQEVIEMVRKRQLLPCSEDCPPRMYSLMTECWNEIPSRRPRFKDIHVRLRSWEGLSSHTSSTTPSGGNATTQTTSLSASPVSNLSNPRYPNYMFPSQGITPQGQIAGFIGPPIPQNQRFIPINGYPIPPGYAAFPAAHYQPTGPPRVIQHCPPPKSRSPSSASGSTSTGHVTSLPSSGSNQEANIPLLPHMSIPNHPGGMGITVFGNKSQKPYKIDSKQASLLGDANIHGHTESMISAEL
In short: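 Doxycycline-induced 293T cells expressing human ROR1, seeded overnight, were treated with compound plus 5-FAM-labeled ROR1-binding probe peptide (30 nM final) for 1 h at 37 °C. After washing and formaldehyde/Hoechst fixation, cell-bound probe fluorescence was read by high-content imaging.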

Q: `CC(C)C[C@@H]1NC(=O)[C@H](Cc2ccccc2)NC(=O)CSC[C@@H](C(=O)NCCOCCOCC(=O)O)NC(=O)[C@H](C)NC(=O)[C@H](Cc2ccc(O)cc2)NC(=O)[C@H](Cc2ccc(O)cc2)NC(=O)[C@H](Cc2c[nH]c3ccccc23)NC(=O)CNC(=O)[C@H](Cc2ccc(O)cc2)NC(=O)[C@H](CCCNC(=N)N)NC(=O)[C@H](C(C)C)NC(=O)[C@H](Cc2c[nH]c3ccccc23)NC1=O` [Example 1086] ({CH2CO}-FLWVRYGWYYAC[AEEA]-OH; thioether N-12) was tested. Which pIC50 did it give?
A: 6.44

Q: With `CC(C)C[C@@H]1NC(=O)[C@H](Cc2ccccc2)N(C)C(=O)[C@H](Cc2ccc(O)cc2)NC(=O)[C@H](Cc2c[nH]c3ccccc23)NC(=O)CNC(=O)[C@H](CO)NC(=O)[C@H](Cc2ccc(O)cc2)NC(=O)[C@H](C(C)C)NC(=O)[C@H](CCC(=O)O)NC(=O)[C@H](Cc2ccc(O)cc2)NC(=O)[C@H](Cc2ccccc2)NC(=O)CSC[C@@H](C(=O)NCC(N)=O)NC1=O` [Example 1052] ({CH2CO}-FYEVYSGWY[NMeF]LCG-NH2; thioether N-12) as the compound, how does the pIC50 read?
A: 6.44

Q: With `CC(C)C[C@@H]1NC(=O)[C@H](Cc2ccc(O)cc2)NC(=O)[C@H](Cc2ccccc2)NC(=O)CSC[C@@H](C(=O)NCCOCCOCC(=O)O)NC(=O)[C@H](CC(C)C)NC(=O)[C@H](Cc2ccccc2)N(C)C(=O)[C@H](Cc2ccc(O)cc2)NC(=O)[C@H](Cc2c[nH]c3ccccc23)NC(=O)CNC(=O)[C@H](CO)NC(=O)[C@H](Cc2ccc(O)cc2)NC(=O)[C@H](C(C)C)NC1=O` [Example 1090] ({CH2CO}-FYLVYSGWY[NMeF]LC[AEEA]-OH; thioether N-12) as the compound, how does the pIC50 read?
A: 7.17

Q: `CCCC[C@H]1C(=O)N[C@H](C(=O)NCC(N)=O)CSCC(=O)N[C@@H](Cc2ccccc2)C(=O)N[C@@H](Cc2ccc(O)cc2)C(=O)N[C@@H](Cc2c[nH]c3ccccc23)C(=O)N[C@@H](CO)C(=O)N[C@@H](CO)C(=O)N[C@@H](CCCNC(=N)N)C(=O)N(C)[C@@H](C)C(=O)N[C@@H](Cc2c[nH]c3ccccc23)C(=O)N[C@@H](Cc2ccc(O)cc2)C(=O)N[C@@H](CC(C)C)C(=O)N1C` [Example 1003] ({CH2CO}-FYWSSR[NMeA]WYL[NMeNle]CG-NH2; thioether N-12) was tested. Which pIC50 did it give?
A: 8.10

Q: `CC(C)C[C@@H]1NC(=O)[C@H](Cc2c[nH]c3ccccc23)NC(=O)[C@H](Cc2ccccc2)NC(=O)[C@H](Cc2c[nH]c3ccccc23)NC(=O)CNC(=O)CNC(=O)[C@H](CC(C)C)NC(=O)[C@H](C(C)C)NC(=O)[C@H](CC(C)C)NC(=O)[C@H](Cc2ccc(O)cc2)NC(=O)[C@H](Cc2ccccc2)NC(=O)CSC[C@@H](C(=O)NCC(N)=O)NC1=O` [Example 1010] ({CH2CO}-FYLVLGGWFWLCG-NH2; thioether N-12) was tested. Which pIC50 did it give?
A: 6.09

Q: With `CC(C)C[C@@H]1NC(=O)[C@H](Cc2c[nH]c3ccccc23)NC(=O)[C@H](Cc2ccc(O)cc2)NC(=O)[C@H](Cc2c[nH]c3ccccc23)NC(=O)CNC(=O)C(CC(=O)O)NC(=O)[C@H](Cc2ccc(O)cc2)NC(=O)[C@H](C(C)C)NC(=O)[C@@H]2CCCN2C(=O)[C@H](Cc2ccc(O)cc2)NC(=O)[C@H](Cc2ccccc2)NC(=O)CSC[C@@H](C(=O)NCC(N)=O)NC1=O` (some centres unmarked) [Example 1009] ({CH2CO}-FYPVY[ξD]GWYWLCG-NH2; thioether N-12) as the compound, how does the pIC50 read?
A: 7.27

Q: How did the pIC50 turn out when `CC(C)C[C@@H]1NC(=O)[C@H](Cc2ccc(O)cc2)NC(=O)[C@H](Cc2ccccc2)NC(=O)CSC[C@@H](C(=O)NCC(N)=O)NC(=O)[C@H](CC(C)C)NC(=O)[C@H](Cc2ccccc2)N(C)C(=O)[C@H](Cc2ccc(O)cc2)NC(=O)[C@H](Cc2c[nH]c3ccccc23)NC(=O)CNC(=O)[C@H](CO)NC(=O)[C@H](CCCCN)NC(=O)[C@H](C(C)C)NC1=O` [Example 1029] ({CH2CO}-FYLVKSGWY[NMeF]LCG-NH2; thioether N-12) was run?
A: 6.59

Q: With `CC(C)C[C@@H]1NC(=O)[C@H](Cc2ccc(O)cc2)NC(=O)[C@H](Cc2ccccc2)NC(=O)CSC[C@@H](C(=O)NCC(N)=O)NC(=O)[C@H](CC(C)C)NC(=O)[C@H](Cc2ccccc2)N(C)C(=O)[C@H](Cc2ccc(O)cc2)NC(=O)[C@H](Cc2c[nH]c3ccccc23)NC(=O)CNC(=O)[C@H](C)NC(=O)[C@H](Cc2ccc(O)cc2)NC(=O)[C@H](C(C)C)NC1=O` [Example 1020] ({CH2CO}-FYLVYAGWY[NMeF]LCG-NH2; thioether N-12) as the compound, how does the pIC50 read?
A: 7.74
